Data taken from patent US20120040896A1, “COMPOSITIONS, METHODS AND USES FOR MODULATION OF BRCA 1” (THE REGENTS OF THE UNIVERSITY OF COLORADO, priority 2008, published 2012).
Where a SMILES comes first, the peptide text is derived from it. The star is where a group is joined. Cbz = O=C(OCc1ccccc1)*

How the values were obtained:
Assay type in all cases: cell-based, human
BARD1 = assay: Immunoblot of BARD1 protein levels in breast carcinoma cells; details: for effect of pretreatment on E2-induced accumulation of BARD1 protein: MCF7, steroid depleted, pretreatment before E2; for BARD1 protein levels under proteasome inhibition: MCF7, steroid depleted medium, 0.5, 4 or 8 hours
Procedure: (§1) MCF7 cells were obtained from the American Type Culture Collection (#HTB-22). T47D cells were provided by Baylor College of Medicine. Both lines were normally maintained at 37° C. with 5% CO2 in DMEM with 1 mM L-glutamine (Gibco) supplemented with 10% Fetalclone serum (HyClone) and 1% non-essential amino acids (Gibco). For steroid depleted conditions (denoted as CSS), cells were cultured in phenol-free DMEM with 1 mM L-glutamine and 25 mM HEPES supplemented with 10% charcoal/dextran treated fetal bovine serum (Gemini Bioproducts). 17-β-estradiol and MG132 were obtained from Sigma-Aldrich. Cycloheximide, U0126, and p38 inhibitor were obtained from Calbiochem. ICI 182780 was obtained from Tocris Biosciences. LY294002 was obtained from Cell Signaling Technology.
(§2) Whole cell lysates were prepared by washing cells twice with PBS and then scraping into ice-cold PBS. Pelleted cells were resuspended in modified RIPA buffer (50 mM Tris base, 150 mM NaCl, 2 mM EDTA, 1% Triton X-100, 0.5% Na-deoxycholate, 0.1% SDS, 50 mM NaF, 5 mM Na3VO4, plus Roche protease inhibitor tablets). Lysates were incubated for 30 minutes on ice, clarified by centrifugation, and protein concentration determined by Bradford assay (BioRad). Where indicated, lysates harvested without phosphatase inhibitors were treated with λ-phosphatase (New England Biolabs) according to manufacturer's instructions. 100 μg of total protein was loaded per lane for Tris-glycine SDS-PAGE. Samples were transferred to PVDF membrane (Millipore) for 200 volt-hours at 50 V constant at 16° C. Membranes were blocked in 5% dry non-fat milk (Carnation) dissolved in either PBS or TBS (25 mM Tris pH 8.0, 135 mM NaCl, 2.5 mM KCl). Primary antibody incubations were performed overnight at 4° C. diluted in either 0.5% dry non-fat milk/PBS-Tween-20 0.1% or in 3% BSA (Santa Cruz Biotechnology)/TBS-Tween-20 0.1%. Antibody suppliers are: BRCA1 (Ab-4 and Ab-1, Calbiochem); BARD1 (Bethyl Laboratories); Lamin A/C, phospho-(Ser/Thr) Akt Substrate, phospho-5473 Akt, and Akt (Cell Signaling Technology); Cyclin D1 (Lab Vision Corp.); Tubulin (Chemicon). Secondary antibodies were obtained from Amersham/GE Healthcare. Densitometry was performed on 600 dpi TIFF scans of Western blot films with Quantity One software (BioRad). Density values for BRCA1 and BARD1 in each sample were normalized by the value of the corresponding Lamin A/C density as a control for loading.

BRCA1 = assay: Immunoblot of BRCA1 protein levels in breast carcinoma cells; details: for effect of pretreatment on E2-induced accumulation of BRCA1 protein: MCF7, steroid depleted, pretreatment before E2; for BRCA1 protein levels under proteasome inhibition: MCF7, steroid depleted medium, 0.5, 4 or 8 hours
Procedure: as §1, §2

Akt = assay: Immunoblot of phosphorylated Akt (pS473), Akt activation; details: MCF7, steroid depleted medium, after treatment
Procedure: as §1
Whole cell lysates were prepared by washing cells twice with PBS and then scraping into ice-cold PBS. Pelleted cells were resuspended in modified RIPA buffer (50 mM Tris base, 150 mM NaCl, 2 mM EDTA, 1% Triton X-100, 0.5% Na-deoxycholate, 0.1% SDS, 50 mM NaF, 5 mM Na3VO4, plus Roche protease inhibitor tablets). Lysates were incubated for 30 minutes on ice, clarified by centrifugation, and protein concentration determined by Bradford assay (BioRad). […] Densitometry was performed on 600 dpi TIFF scans of Western blot films with Quantity One software (BioRad). […]

Structure (SMILES) | effect of pretreatment on E2-induced accumulation of BARD1 protein (BARD1) | effect of pretreatment on E2-induced accumulation of BRCA1 protein (BRCA1) | Akt activation (phosphorylated Akt pS473) (Akt) | BARD1 protein levels under proteasome inhibition (BARD1) | BRCA1 protein levels under proteasome inhibition (BRCA1)
C[C@]12CC[C@@H]3c4ccc(O)cc4C[C@@H](CCCCCCCCC[S+]([O-])CCCC(F)(F)C(F)(F)F)[C@H]3[C@@H]1CC[C@@H]2O (some centres unmarked) [ICI 182780] | abolished | abolished |  |  | 
N#CC(=C(/N)Sc1ccccc1N)/C(C#N)=C(/N)Sc1ccccc1N [MEK 1/2] |  | no effect |  |  | 
CC(C)C[C@@H](C=O)NC(=O)[C@H](CC(C)C)NC(=O)[C@H](CC(C)C)NC(=O)OCc1ccccc1 [MG132] (Cbz-Leu-Leu-Leu-aldehyde) |  |  | dramatic activation | accumulation | accumulation
CC(C)C[C@H](NC(=O)[C@H](Cc1ccccc1)NC(=O)c1cnccn1)B(O)O [bortezomib] |  |  | only minor activation | rapidly increased | rapidly increased
C[C@@H]1C[C@@H]([C@H](O)CC2CC(=O)NC(=O)C2)C(=O)[C@@H](C)C1 [cycloheximide, Cycloheximide] | did not prevent | did not prevent |  |  | 
